Molecules are shown by their SMILES.

For the first test, the system named is Mycobacterium tuberculosis strain EH 4.0 (361.269). Nature of the test: Test 4: MIC determination, resazurin fluorescence, strain EH 4.0. The class given is cell-based. To be noted: Mycobacterium tuberculosis, read-out: pIC50, Test 4, M. tuberculosis strain EH 4.0 (361.269) (converted). The source says: TEST 4 (See Also Test 1 Above; in this Test a Different Strain of Mycobacterium tuberculosis Strain is Employed)
Appropriate solutions of experimental and reference compounds were made in 96 well plates with 7H9 medium. Samples of Mycobacterium tuberculosis strain EH 4.0 (361.269) were taken from cultures in stationary growth phase. These were first diluted to obtain an optical density of 0.3 at 600 nm wavelength and then diluted 1/100, resulting in an inoculum of approximately 5×10 exp5 colony forming units per well. Plates were incubated at 37° C. in plastic bags to prevent evaporation. After 7 days, resazurin was added to all wells.
A general note: Resazurin is reduced to fluorescent resorufin, in cell work by metabolically active cells.
Consider `CCc1nc2sc(C)cn2c1C(=O)NCC1CC2(CCN(c3ccc(OC(F)(F)F)cc3)CC2)C1` [Compound 32], for which the IC50 was 39.8 nM.

As for `O=C(NCC1CC12CCN(c1ccc(OC(F)(F)F)cc1)CC2)c1cc2n(c1)CCCC2` (centres unmarked) [Compound 33], the IC50 is more than 12600 nM. Same read-out and setting: with `CCc1nc2cn(C)ccc-2c1C(=O)NCc1ccc(N2CC3(CC(F)C3)C2)cc1` [Compound 34] the figure was more than 12600 nM; with `O=C(NCc1ccc(N2CC3(C2)CN(c2ccc(OC(F)(F)F)cc2)C3)cc1)c1cc2c([nH]1)CCCC2` [Compound 35], 7940 nM. With `CCc1c(C(=O)NCc2ccc(N3CC4(CC(c5ccc(OC(F)(F)F)cc5)C4)C3)cc2)c2ccncc2n1C` [Compound 36], the IC50 was 7940 nM. Still for that read-out and setting: as for `O=C(NCc1ccc(N2CC3(CC(c4ccc(OC(F)(F)F)cc4)C3)C2)cc1)c1cc2c([nH]1)CCCC2` [Compound 37], the figure is 3980 nM. Same read-out and setting: with `CCc1c(C(=O)NCC2CC23CCN(c2ccc(OC(F)(F)F)cc2)CC3)c2cc(Cl)cnc2n1C` (centres unmarked) [Compound 38] the figure was more than 12600 nM. On to `CCc1c(C(=O)NCC2CC23CCN(c2ccc(OC(F)(F)F)cc2)CC3)c2cc(Cl)ccc2n1C` (centres unmarked) [Compound 39], for which the IC50 is more than 12600 nM. As for `O=C(NCC1CC12CCN(c1ccc(OC(F)(F)F)cc1)CC2)c1cc2c([nH]1)CCCC2` (centres unmarked) [Compound 40], the IC50 was more than 12600 nM. Take `CCc1nc2n(c1C(=O)NCC1CC13CCN(c1ccc(OC(F)(F)F)cc1)CC3)CCN(C)C2` (centres unmarked) [Compound 41]: the IC50 was 7940 nM. On the same count and under the same terms, with `O=C(NCc1ccc(N2CC3(C2)CN(c2ccc(OC(F)(F)F)cc2)C3)cc1)c1cc2n(c1)CCCC2` [Compound 42] the figure was 10000 nM; with `CCc1c(C(=O)NCC2CC3(CCN(c4ccc(OC(F)(F)F)cc4)CC3)C2)c2cc(Cl)cnc2n1C` [Compound 43], more than 12600 nM.

As for `O=C(NCC1CC2(CCN(c3ccc(OC(F)(F)F)cc3)CC2)C1)c1cc2c([nH]1)CCCC2` [Compound 44], the IC50 was 7940 nM. The same measure, in the same setting: with `O=C(NCc1ccc(N2CC3(CC(c4ccc(OC(F)(F)F)cc4)C3)C2)cc1)c1cc2n(c1)CCCC2` [Compound 45] the figure was 7940 nM. In the case of `CCc1nc2n(c1C(=O)NCC1CC3(CCN(c4ccc(OC(F)(F)F)cc4)CC3)C1)CCN(C)C2` [Compound 46], the IC50 was 7940 nM. Take `CCc1c(C(=O)NCc2ccc(N3CC4(C3)CN(c3ccc(OC(F)(F)F)cc3)C4)cc2)c2ccncc2n1C` [Compound 47]: the IC50 is 6310 nM.

As for `CCc1nc2n(c1C(=O)NCC1CC13CCN(c1ccc(OC(F)(F)F)cc1)CC3)CCCC2` (centres unmarked) [Compound 48], the IC50 is 6310 nM. Still for that read-out and setting: as for `CCc1c(C(=O)NCC2CC23CCN(c2ccc(OC(F)(F)F)cc2)CC3)c2ccncc2n1C` (centres unmarked) [Compound 49], the figure is more than 12600 nM.

Take `CCc1nc2cn(C)ccc-2c1C(=O)NCC1CC2(CCN(c3ccc(OC(F)(F)F)cc3)CC2)C1` [Compound 50]: the IC50 was more than 12600 nM.

Regarding `CCc1nc2ccn(C)cc-2c1C(=O)NCc1ccc(N2CC3(C2)CN(c2ccc(OC(F)(F)F)cc2)C3)cc1` [Compound 51], the IC50 was 6310 nM. `CCc1c(C(=O)NCC2CC3(CCN(c4ccc(OC(F)(F)F)cc4)CC3)C2)c2ccncc2n1C` [Compound 52]: the IC50 is 7940 nM. On the same count and under the same terms, with `CCc1nc2ccn(C)cc-2c1C(=O)NCC1CC12CCN(c1ccc(OC(F)(F)F)cc1)CC2` (centres unmarked) [Compound 53] the figure was more than 12600 nM; with `CCc1nc2cnc(Cl)cn2c1C(=O)NCC1CC12CCN(c1ccc(OC(F)(F)F)cc1)CC2` (centres unmarked) [Compound 54], 7940 nM. On the same count and under the same terms, as for `CCc1c(C(=O)NCC2CC23CCN(c2ccc(OC(F)(F)F)cc2)CC3)c2cnccc2n1C` (centres unmarked) [Compound 55], the figure is more than 12600 nM; as for `COc1ccn2nc(C)c(C(=O)NCc3ccc(C4CC5(C4)CN(c4ccc(OC(F)(F)F)cc4)C5)cc3)c2c1` [Compound 56], 6.31 nM; as for `COc1ccn2nc(C)c(C(=O)NCc3ccc(N4CC5(C4)CN(c4ccc(OC(F)(F)F)cc4)C5)cc3)c2c1` [Compound 57], 7.94 nM.

As for `CCc1nc2cnc(Cl)cn2c1C(=O)NCc1ccc(N2CC3(C2)CN(c2ccc(OC(F)(F)F)cc2)C3)cc1` [Compound 58], the IC50 is 100 nM. Take `COc1ccn2nc(C)c(C(=O)NCC3CC4(CCN(c5ccc(OC(F)(F)F)cc5)CC4)C3)c2c1` [Compound 59]: the IC50 is 316 nM.

As to `Cc1nc2ncc(Cl)cn2c1C(=O)NCC1CC2(CCN(c3ccc(OC(F)(F)F)cc3)CC2)C1` [Compound 60], the IC50 was 100 nM. Still for that read-out and setting: with `CCc1nc2n(c1C(=O)NCC1CC3(CCN(c4ccc(OC(F)(F)F)cc4)CC3)C1)CCCC2` [Compound 61] the figure was 631 nM; with `CCc1nc2sc(C)cn2c1C(=O)NCC1CC12CCN(c1ccc(OC(F)(F)F)cc1)CC2` (centres unmarked) [Compound 64], 100 nM; with `CCc1nc2n(c1C(=O)NCc1ccc(C3CC4(C3)CN(c3ccc(OC(F)(F)F)cc3)C4)cc1)CCCC2` [Compound 65], 10 nM. As for `CCc1nc2ncc(Cl)cn2c1C(=O)NCc1ccc(N2CC3(CC(c4ccc(S(F)(F)(F)(F)F)cc4)C3)C2)cc1` [Compound 66], the IC50 was 7.94 nM. As for `CCc1nc2sc(C)cn2c1C(=O)NCc1ccc(C2CC3(C2)CN(c2ccc(OC(F)(F)F)cc2)C3)cc1` [Compound 67], the IC50 is 10 nM. On the same count and under the same terms, with `CCc1nc2n(c1C(=O)NCc1ccc(C3CC4(C3)CN(c3ccc(OC(F)(F)F)cc3)C4)cc1)CCN(C)C2` [Compound 69] the figure was 31.6 nM; with `CCc1nc2n(c1C(=O)NCc1ccc(N3CC4(C3)CN(c3ccc(OC(F)(F)F)cc3)C4)cc1)CCN(C)C2` [Compound 70], 316 nM; with `CCc1nc2n(c1C(=O)NCc1ccc(N3CC4(CC(c5ccc(OC(F)(F)F)cc5)C4)C3)cc1)CCN(C)C2` [Compound 71], 316 nM. Still for that read-out and setting: with `CCc1nc2ccc(Cl)cn2c1C(=O)NCc1ccc(N2CC3(CC(Oc4ccc(C(F)(F)F)cc4)C3)C2)cc1` [Compound 72] the figure was 10 nM; with `CCc1nc2ncc(Cl)cn2c1C(=O)NCc1ccc(N2CC3(CC(Oc4ccc(C(F)(F)F)cc4)C3)C2)cc1` [Compound 73], 200 nM. Still for that read-out and setting: as for `CCc1nc2n(c1C(=O)NCc1ccc(N3CC4(CC(Oc5ccc(C(F)(F)F)cc5)C4)C3)cc1)CCN(C)C2` [Compound 74], the figure is 63.1 nM; as for `CCc1nc2ccc(Cl)cn2c1C(=O)NCc1ccc(N2CC3(CC(c4cccnc4)C3)C2)cc1` [Compound 77], 794 nM; as for `CCc1nc2n(c1C(=O)NCc1ccc(N3CC4(CC(F)C4)C3)cc1)CCN(C)C2` [Compound 78], 2510 nM. Regarding `CCc1c(C(=O)NCc2ccc(N3CC4(C3)CN(c3ccc(OC(F)(F)F)cc3)C4)cc2)c2cc(Cl)cnc2n1C` [Compound 79], the IC50 is more than 12600 nM. The same measure, in the same setting: as for `CCc1c(C(=O)NCc2ccc(N3CC4(C3)CN(c3ccc(OC(F)(F)F)cc3)C4)cc2)c2cc(Cl)ccc2n1C` [Compound 80], the figure is more than 12600 nM.

With `CCc1nc2ccc(Cl)cn2c1C(=O)NCc1ccc(N2CCC3(CC2)CC(F)C3)cc1` [Compound 81], the IC50 was 5.01 nM. `CCc1nn2ccc(C)nc2c1C(=O)NCc1ccc(N2CC3(CC(c4ccc(OC(F)(F)F)cc4)C3)C2)cc1` [Compound 97]: the IC50 is more than 12600 nM.

Still in this test, the particulars now being: Test 4, M. tuberculosis strain EH 4.0 (361.269).
For `CCc1nc2ccc(Cl)cn2c1C(=O)NCC1CC12CCN(c1ccc(OC(F)(F)F)cc1)CC2` (centres unmarked) [Compound 63], the pIC50 (as a rule, the IC50 on a negative log10 scale, so that one unit is a factor of ten) is given as 6.5.

For the origin of these results see patent US20190330189A1, “ANTIBACTERIAL COMPOUNDS” (Janssen Sciences Ireland UC, priority 2015, published 2019).
